Laboratory results published in PMC12920294, “Optimizing uPAR-targeting radiopeptides for improved tissue distribution: progress towards radionuclide therapy” (European Journal of Nuclear Medicine and Molecular Imaging, 2025).
Read-outs that look alike come from different tables or passages of the source.

Legend:
[1] = test system: HEK-uPAR xenograft-bearing mice; details: mouse, in vivo
Method: Single-photon emission computed tomography/computed tomography (SPECT/CT) experiments were performed using a small-animal SPECT/CT camera (NanoSPECT/CTTM, Mediso Medical Imaging Systems, Budapest, Hungary) as described previously (Supplementary Material). HEK-uPAR xenografted nude mice were scanned at 1 h, 4 h, 24 h […] after injection of the respective radiopeptide (25 MBq, 0.5 nmol, in 100 μL 0.9% NaCl containing 0.05% bovine serum albumin (BSA)) The images were prepared using VivoQuant post-processing software (version 3.5, inviCRO Imaging Services and Software, Boston, USA). A Gauss post-reconstruction filter (full width at half maximum, 1.0 mm) was applied and the scale of activity was set as indicated on the images (minimum value = 0.2 Bq/voxel, maximum value = 20 Bq/voxel). Methods: SPECT/CT experiments were performed with CD1 nude mice (Crl:CD1-Foxn1^nu) approximately 3-9 weeks after HEK-uPAR cell inoculation. The mice were scanned 1 h, 4 h and 24 h post injection (p.i.) of the respective radiopeptide (25 MBq, 0.5 nmol, 100 μL, diluted in 0.9% NaCl containing 0.05% bovine serum albumin (BSA)). Imaging studies were performed using a four-head, multiplexing, multi-pinhole small-animal SPECT/CT camera (NanoSPECT/CT^TM, Mediso Medical Imaging Systems, Budapest, Hungary). Each head was outfitted with a tungsten-based aperture of nine 1.4 mm-diameter pinholes and a thickness of 10 mm. CT scans of 7-9 min duration were followed by SPECT scans of 45-50 min. The images were acquired using Nucline Software (version 10.2, Mediso Ltd., Budapest, Hungary). The real-time CT reconstruction used a cone-beam filtered backprojection. The reconstruction of SPECT data was performed with HiSPECT software (version 1.4.3049, […] GmbH, Göttingen, Germany) using γ-energies of 56.1 keV (± 10%), 112.9 keV (± 10%) and 208.4 keV (± 10%) for lutetium-177. The images were prepared using VivoQuant post-processing software (version 3.5, inviCRO Imaging Services and Software, Boston, USA). A Gauss post-reconstruction filter (full width at half maximum, 1.0 mm) was applied and the scale of activity was set as indicated on the images (minimum value = 0.2 Bq/voxel, maximum value = 20 Bq/voxel).

[2] = test system: HEK-uPAR xenograft-bearing mice; details: mouse, in vivo; remark: listed apart in the source
[3] = in vivo; details: CD1 nude, mouse, 0.5 nmol/mouse, total radioactivity
[4] = assay type: in vitro ADME; details: 1 µM
Method: The ^177Lu-labeled peptides (50 MBq/nmol) were incubated in mouse or human blood plasma (10 MBq/200 µL) over an incubation period of 24 h at 37 °C. Aliquots and control samples of the radiopeptides diluted in saline were analyzed after 1 h, 4 h and 24 h using thin layer chromatography (TLC) as previously reported (Supplementary Material). The distribution coefficients (logD values) of the ^177Lu-labeled peptides (50 MBq/nmol) were determined using a shake-flask method according to a previously published procedure (Supplementary Material).
Methods: A sample of each radiopeptide (50 MBq/nmol) was added to mouse blood plasma (Lot: 32321, Rockland Immunochemicals Inc., USA) or to human blood plasma (Stiftung Blutspende SRK Aargau-Solothurn, Switzerland) to obtain an activity concentration of 10 MBq/200 µL. The test samples were incubated at 37 °C for up to 24 h. Control samples referred to the radiopeptides which were instead diluted in saline at an activity concentration of 10 MBq/200 µL. Aliquots of each sample (2 µL, ~100 kBq) were taken after 1 h, 4 h and 24 h and investigated by means of thin layer chromatography (TLC). The employed method involved reversed-phase TLC plates (MERCK Analytical Chromatography, TLC Silica gel 60 RP-18 F254s) as stationary phase and ACN/citrate buffer (3:7; v/v; pH 5.5) as mobile phase. After the eluent reached the front line, the TLC plates were dried and exposed to a phosphor screen (Super resolution screen PSR10450013, PerkinElmer) for 1 min. The respective screen was developed using a storage phosphor system (Cyclone Plus, PerkinElmer) and analyzed using the OptiQuant Software (version 5.0, Bright Instrument Co Ltd., PerkinElmer).

Xgrft-to-liver ratio [2]: 1.3 ± 0.1
tissue uptake at 4 h ([3]; Blood uptake): 12 ± 1 %ID/g
tissue uptake at 24 h ([3]; Blood uptake): 3.4 ± 1 %ID/g
tissue uptake at 4 h ([3]; Bone uptake): 1.4 ± 0.1 %ID/g
tissue uptake at 24 h ([3]; Bone uptake): 0.78 ± 0.15 %ID/g
tissue uptake at 4 h ([3]; Brain uptake): 0.24 ± 0.01 %ID/g
tissue uptake at 24 h ([3]; Brain uptake): 0.1 ± 0.03 %ID/g
tissue uptake at 4 h ([3]; HEK-uPAR xenograft uptake): 6 ± 0.2 %ID/g
tissue uptake at 24 h ([3]; HEK-uPAR xenograft uptake): 5.7 ± 0.7 %ID/g
tissue uptake at 4 h ([3]; Heart uptake): 4 ± 0.3 %ID/g
tissue uptake at 24 h ([3]; Heart uptake): 1.6 ± 0.2 %ID/g
tissue uptake at 4 h ([3]; Intestines uptake): 1.5 ± 0.1 %ID/g
tissue uptake at 24 h ([3]; Intestines uptake): 0.76 ± 0.12 %ID/g
tissue uptake at 4 h ([3]; Kidneys uptake): 3.9 ± 0.1 %ID/g
tissue uptake at 24 h ([3]; Kidneys uptake): 4.3 ± 0.3 %ID/g
tissue uptake at 4 h ([3]; Liver uptake): 5.3 ± 0.3 %ID/g
tissue uptake at 24 h ([3]; Liver uptake): 4.2 ± 0.3 %ID/g
tissue uptake at 4 h ([3]; Lung uptake): 7.2 ± 1.3 %ID/g
tissue uptake at 24 h ([3]; Lung uptake): 2.6 ± 0.6 %ID/g
tissue uptake at 4 h ([3]; Muscle uptake): 1.2 ± 0.1 %ID/g
tissue uptake at 24 h ([3]; Muscle uptake): 0.6 ± 0.22 %ID/g
tissue uptake at 4 h ([3]; Pancreas uptake): 1.4 ± 0.2 %ID/g
tissue uptake at 24 h ([3]; Pancreas uptake): 0.79 ± 0.24 %ID/g
tissue uptake at 4 h ([3]; Salivary glands uptake): 2.7 ± 0.2 %ID/g
tissue uptake at 24 h ([3]; Salivary glands uptake): 1.4 ± 0.2 %ID/g
tissue uptake at 4 h ([3]; Spleen uptake): 1.9 ± 0.1 %ID/g
tissue uptake at 24 h ([3]; Spleen uptake): 2 ± 0.6 %ID/g
tissue uptake at 4 h ([3]; Stomach uptake): 1.4 ± 0.1 %ID/g
tissue uptake at 24 h ([3]; Stomach uptake): 0.52 ± 0.16 %ID/g
Human blood plasma stability, intact radiopeptide ([4]; 1 h): 100 ± 1%
Mouse blood plasma stability, intact radiopeptide ([4]; 1 h): 100 ± 1%
Human blood plasma stability, intact radiopeptide ([4]; 4 h): 99 ± 1%
Mouse blood plasma stability, intact radiopeptide ([4]; 4 h): 99 ± 1%
Human blood plasma stability, intact radiopeptide ([4]; 24 h): 98 ± 1%
Mouse blood plasma stability, intact radiopeptide ([4]; 24 h): 99 ± 1%
Structure (SMILES): Cc1ccc(CCCC(=O)NCCCCCCCC(=O)NCCCC[C@H](NC(=O)CN2CCN(CC(=O)O)CCN(CC(=O)O)CCN(CC(=O)O)CC2)C(=O)N[C@@H](CC(=O)O)C(=O)N[C@@H](CC2CCCCC2)C(=O)N[C@@H](Cc2ccccc2)C(=O)N[C@H](CO)C(=O)N[C@H](CCCNC(=N)N)C(=O)N[C@@H](Cc2ccc(O)cc2)C(=O)N[C@@H](CC(C)C)C(=O)N[C@@H](Cc2c[nH]c3ccccc23)C(=O)N[C@@H](CO)C(N)=O)cc1 [[^177Lu]Lu-uPAR-12, metal not drawn]
SPECT/CT: blood retention [1]: substantial blood retention was observed over the entire time of investigation
